We go through 14 compounds from patent US9376425B2, “Heterocyclic compounds as MDM2 inhibitors for the treatment of cancer” (AMGEN INC., priority 2011, dated 2016).

Bounds are passed on as bounds.

T1 sequence (Q00987 1-188): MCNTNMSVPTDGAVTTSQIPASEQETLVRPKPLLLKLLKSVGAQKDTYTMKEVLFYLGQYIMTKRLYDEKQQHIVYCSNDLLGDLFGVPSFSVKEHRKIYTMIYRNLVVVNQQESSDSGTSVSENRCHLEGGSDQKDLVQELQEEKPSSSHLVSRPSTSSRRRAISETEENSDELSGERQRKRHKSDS

This test addresses T1, human MDM2 (GST-hMDM2 1-188), interaction with biotinylated-p53 (1-83) (Homo sapiens, UniProt Q00987).
T1 construct: Amino acid residues 1-188 of human MDM2 were expressed; made in house; host or cells: Escherichia coli
The test is described as follows: improved HTRF assay (HTRF2 assay), inhibition of HDM2-p53 interaction. It is filed as binding. The note with it: 0.2 nM GST-hMDM2, 0.5 nM biotinylated-p53, 100 mM KF. The gist of the method:
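GST-hMDM2 preincubated 20 min at RT with serially diluted compound, then biotinylated p53 (1-83, E. coli) added for 60 min. Detection with SA-XLent, anti-GST cryptate and KF, equilibrated >4 h; final DMSO 2%. TR-FRET read; % inhibition calculated relative to nutlin-3.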
A general note: In TR-FRET formats the signal depends on donor and acceptor labels being close together.
As to `CC(C)(C)S(=O)(=O)C[C@H](C1CC1)N1C(=O)[C@@](C)(CC(=O)O)O[C@H](c2cccc(Cl)c2)[C@H]1c1ccc(Cl)cc1` (single isomer, unassigned) [Example 335, 2-((2R,5R,6R)-4-((S)-2-(tert-Butylsulfonyl)-1-cyclopropylethyl)-6-(3-chlorophenyl)-5-(4-chlorophenyl)-2-methyl-3-oxomorpholin-2-yl)acetic acid or 2-((2S,5R,6R)-4-((S)-2-(tert-butylsulfonyl)-1-cyclopropylethyl)-6-(3-chlorophenyl)-5-(4-chlorophenyl)-2-methyl-3-oxomorpholin-2-yl)acetic acid], inhibition was half-maximal at 3 nM (IC50). In the case of `C[C@H]1CCCN1S(=O)(=O)C[C@H](C1CC1)N1C(=O)[C@@](C)(CC(=O)O)O[C@H](c2cccc(Cl)c2)[C@H]1c1ccc(Cl)cc1` (single isomer, unassigned) [Example 336, 2-((2R,5R,6R)-6-(3-Chlorophenyl)-5-(4-chlorophenyl)-4-((S)-1-cyclopropyl-2-(((S)-2-methylpyrrolidin-1-yl)sulfonyl)ethyl)-2-methyl-3-oxomorpholin-2-yl)acetic acid or 2-((2S,5R,6R)-6-(3-chlorophenyl)-5-(4-chlorophenyl)-4-((S)-1-cyclopropyl-2-(((S)-2-methylpyrrolidin-1-yl)sulfonyl)ethyl)-2-methyl-3-oxomorpholin-2-yl)acetic acid] it was under 1 nM.

In the case of `C[C@H]1CCCN1S(=O)(=O)C[C@H](C1CC1)N1C(=O)[C@@](C)(CC(=O)O)O[C@H](c2cccc(Cl)c2)[C@H]1c1ccc(Cl)cc1` (single isomer, unassigned) [Example 337, 2-((2R,5R,6R)-6-(3-Chlorophenyl)-5-(4-chlorophenyl)-4-((S)-1-cyclopropyl-2-(((S)-2-methylpyrrolidin-1-yl)sulfonyl)ethyl)-2-methyl-3-oxomorpholin-2-yl)acetic acid or 2-((2S,5R,6R)-6-(3-chlorophenyl)-5-(4-chlorophenyl)-4-((S)-1-cyclopropyl-2-(((S)-2-methylpyrrolidin-1-yl)sulfonyl)ethyl)-2-methyl-3-oxomorpholin-2-yl)acetic acid], 50 nM corresponded to half-maximal inhibition (IC50). That is a double-digit nanomolar value.

Turning to `CC(C)(C)S(=O)(=O)C[C@H](CC(F)(F)F)N1C(=O)[C@@](C)(CC(=O)O)O[C@H](c2cccc(Cl)c2)[C@H]1c1ccc(Cl)cc1` (single isomer, unassigned) [Example 340, 2-((2R,5R,6R)-4-((S)-1-(tert-Butylsulfonyl)-4,4,4-trifluorobutan-2-yl)-6-(3-chlorophenyl)-5-(4-chlorophenyl)-2-methyl-3-oxomorpholin-2-yl)acetic acid or 2-((2S,5R,6R)-4-((S)-1-(tert-butylsulfonyl)-4,4,4-trifluorobutan-2-yl)-6-(3-chlorophenyl)-5-(4-chlorophenyl)-2-methyl-3-oxomorpholin-2-yl)acetic acid], the midpoint of inhibition, the IC50, lay at 28 nM. Consider `CC(C)(C)S(=O)(=O)C[C@H](CC(F)(F)F)N1C(=O)[C@@](C)(CC(=O)O)O[C@H](c2cccc(Cl)c2)[C@H]1c1ccc(Cl)cc1` (single isomer, unassigned) [Example 341, 2-((2R,5R,6R)-4-((S)-1-(tert-Butylsulfonyl)-4,4,4-trifluorobutan-2-yl)-6-(3-chlorophenyl)-5-(4-chlorophenyl)-2-methyl-3-oxomorpholin-2-yl)acetic acid or 2-((2S,5R,6R)-4-((S)-1-(tert-butylsulfonyl)-4,4,4-trifluorobutan-2-yl)-6-(3-chlorophenyl)-5-(4-chlorophenyl)-2-methyl-3-oxomorpholin-2-yl)acetic acid], for which the IC50 – broadly, the concentration that inhibits the measured activity by half – is under 1 nM. With `CC[C@]1(CC(=O)O)O[C@H](c2cccc(Cl)c2)[C@@H](c2ccc(Cl)cc2)N([C@@H](CC(F)(F)F)CS(=O)(=O)C(C)(C)C)C1=O` (single isomer, unassigned) [Example 342, 2-((2R,5R,6R)-4-((S)-1-(tert-Butylsulfonyl)-4,4,4-trifluorobutan-2-yl)-6-(3-chlorophenyl)-5-(4-chlorophenyl)-2-ethyl-3-oxomorpholin-2-yl)acetic acid or 2-((2S,5R,6R)-4-((S)-1-(tert-butylsulfonyl)-4,4,4-trifluorobutan-2-yl)-6-(3-chlorophenyl)-5-(4-chlorophenyl)-2-ethyl-3-oxomorpholin-2-yl)acetic acid] the figure was 104 nM; with `CC[C@]1(CC(=O)O)O[C@H](c2cccc(Cl)c2)[C@@H](c2ccc(Cl)cc2)N([C@@H](CC(F)(F)F)CS(=O)(=O)C(C)(C)C)C1=O` (single isomer, unassigned) [Example 343, 2-((2R,5R,6R)-4-((S)-1-(tert-Butylsulfonyl)-4,4,4-trifluorobutan-2-yl)-6-(3-chlorophenyl)-5-(4-chlorophenyl)-2-ethyl-3-oxomorpholin-2-yl)acetic acid or 2-((2S,5R,6R)-4-((S)-1-(tert-butylsulfonyl)-4,4,4-trifluorobutan-2-yl)-6-(3-chlorophenyl)-5-(4-chlorophenyl)-2-ethyl-3-oxomorpholin-2-yl)acetic acid], 1 nM.

`CC(C)(C)S(=O)(=O)C[C@H](C1CC1)N1C(=O)[C@@H](CC(=O)NCC(F)(F)F)O[C@H](c2cccc(Cl)c2)[C@H]1c1ccc(Cl)cc1` (single isomer, unassigned) [Example 346, 2-((2R,5R,6R)-4-((S)-2-(tert-Butylsulfonyl)-1-cyclopropylethyl)-6-(3-chlorophenyl)-5-(4-chlorophenyl)-3-oxomorpholin-2-yl)-N-(2,2,2-trifluoroethyl)acetamide or 2-((2S,5R,6R)-4-((S)-2-(tert-butylsulfonyl)-1-cyclopropylethyl)-6-(3-chlorophenyl)-5-(4-chlorophenyl)-3-oxomorpholin-2-yl)-N-(2,2,2-trifluoroethyl)acetamide] displayed a half-inhibitory concentration (IC50) of 21 nM.

`CC(C)(C)S(=O)(=O)C[C@H](C1CC1)N1C(=O)[C@@H](CC(=O)NCC(F)(F)F)O[C@H](c2cccc(Cl)c2)[C@H]1c1ccc(Cl)cc1` (single isomer, unassigned) [Example 347, 2-((2R,5R,6R)-4-((S)-2-(tert-Butylsulfonyl)-1-cyclopropylethyl)-6-(3-chlorophenyl)-5-(4-chlorophenyl)-3-oxomorpholin-2-yl)-N-(2,2,2-trifluoroethyl)acetamide or 2-((2S,5R,6R)-4-((S)-2-(tert-butylsulfonyl)-1-cyclopropylethyl)-6-(3-chlorophenyl)-5-(4-chlorophenyl)-3-oxomorpholin-2-yl)-N-(2,2,2-trifluoroethyl)acetamide] gave an IC50 of 4 nM. With `CC(C)(C)S(=O)(=O)C[C@H](C1CC1)N1C(=O)[C@@H](CC(=O)NCC#N)O[C@H](c2cccc(Cl)c2)[C@H]1c1ccc(Cl)cc1` (single isomer, unassigned) [Example 348, 2-((2R,5R,6R)-4-((S)-2-(tert-Butylsulfonyl)-1-cyclopropylethyl)-6-(3-chlorophenyl)-5-(4-chlorophenyl)-3-oxomorpholin-2-yl)-N-(cyanomethyl)acetamide or 2-((2S,5R,6R)-4-((S)-2-(tert-butylsulfonyl)-1-cyclopropylethyl)-6-(3-chlorophenyl)-5-(4-chlorophenyl)-3-oxomorpholin-2-yl)-N-(cyanomethyl)acetamide], the IC50 was found to be 5 nM. With `CC(C)(C)S(=O)(=O)C[C@H](C1CC1)N1C(=O)[C@@H](CC(=O)NCC#N)O[C@H](c2cccc(Cl)c2)[C@H]1c1ccc(Cl)cc1` (single isomer, unassigned) [Example 349, 2-((2R,5R,6R)-4-((S)-2-(tert-Butylsulfonyl)-1-cyclopropylethyl)-6-(3-chlorophenyl)-5-(4-chlorophenyl)-3-oxomorpholin-2-yl)-N-(cyanomethyl)acetamide or 2-((2S,5R,6R)-4-((S)-2-(tert-butylsulfonyl)-1-cyclopropylethyl)-6-(3-chlorophenyl)-5-(4-chlorophenyl)-3-oxomorpholin-2-yl)-N-(cyanomethyl)acetamide] the figure was 1 nM; with `CC(C)(C)S(=O)(=O)C[C@H](C1CC1)N1C(=O)[C@@H](CC(=O)Nc2ccccc2)O[C@H](c2cccc(Cl)c2)[C@H]1c1ccc(Cl)cc1` (single isomer, unassigned) [Example 350, 2-((2R,5R,6R)-4-((S)-2-(tert-Butylsulfonyl)-1-cyclopropylethyl)-6-(3-chlorophenyl)-5-(4-chlorophenyl)-3-oxomorpholin-2-yl)-N-phenylacetamide or 2-42S,5R,6R)-4-((S)-2-(tert-butylsulfonyl)-1-cyclopropylethyl)-6-(3-chlorophenyl)-5-(4-chlorophenyl)-3-oxomorpholin-2-yl)-N-phenylacetamide], 16 nM; with `CC(C)(C)S(=O)(=O)C[C@H](C1CC1)N1C(=O)[C@@H](CC(=O)Nc2ccccc2)O[C@H](c2cccc(Cl)c2)[C@H]1c1ccc(Cl)cc1` (single isomer, unassigned) [Example 351, 2-((2R,5R,6R)-4-((S)-2-(tert-Butylsulfonyl)-1-cyclopropylethyl)-6-(3-chlorophenyl)-5-(4-chlorophenyl)-3-oxomorpholin-2-yl)-N-phenylacetamide or 2-((2S,5R,6R)-4-((S)-2-(tert-butylsulfonyl)-1-cyclopropylethyl)-6-(3-chlorophenyl)-5-(4-chlorophenyl)-3-oxomorpholin-2-yl)-N-phenylacetamide], 4 nM. In the case of `CC(C)(C)S(=O)(=O)C[C@H](C1CC1)N1C(=O)[C@@H](CC(=O)Nc2ccccc2F)O[C@H](c2cccc(Cl)c2)[C@H]1c1ccc(Cl)cc1` (single isomer, unassigned) [Example 352, 2-((2R,5R,6R)-4-((S)-2-(tert-Butylsulfonyl)-1-cyclopropylethyl)-6-(3-chlorophenyl)-5-(4-chlorophenyl)-3-oxomorpholin-2-yl)-N-(2-fluorophenyl)acetamide or 2-((2S,5R,6R)-4-((S)-2-(tert-butylsulfonyl)-1-cyclopropylethyl)-6-(3-chlorophenyl)-5-(4-chlorophenyl)-3-oxomorpholin-2-yl)-N-(2-fluorophenyl)acetamide] it was 25 nM.
